According to the OligoGym collection:
Where “and” joins values, the source holds several entries; their conditions need not be identical. Equal values may be shown once. After the bases stand the sugars from the 5' end (letter, count) and the backbone: PS all phosphorothioate, else s phosphorothioate and o phosphodiester by linkage. Methylation of C is not given here. e = 2'-O-(2-methoxyethyl) (MOE); k = constrained ethyl (cEt); d = 2'-deoxy (DNA)

Experiments:
IRF5 = details: ASO
DGAT2 = details: ASO

| Sequence | target mRNA inhibition (DGAT2; HepG2, 0.12 µM) | target mRNA inhibition (DGAT2; HepG2, 2.5 µM) | target mRNA inhibition (DGAT2; HepG2, 10 µM) | also measured |
| --- | --- | --- | --- | --- |
| CCAATGCAACATCCAT (sugars k2 d9 e3 k2, PS) |  |  |  | target mRNA inhibition (IRF5; KARPAS-229, 4 µM): 0% |
| TGAGTCTCAAACCAGG (sugars k3 d10 k3, PS) |  |  |  | target mRNA inhibition (IRF5; KARPAS-229, 4 µM): 16% |
| CTGACACAGGCGGATG (sugars kdddddddddkekeke, PS) |  |  |  | target mRNA inhibition (IRF5; KARPAS-229, 4 µM): 0% |
| GGTTCTTGGACTCTCA (sugars kkdddddddddkekek, PS) |  |  |  | target mRNA inhibition (IRF5; KARPAS-229, 4 µM): 0% |
| GAGTGAGACGAGCAAA (sugars kddddddddddkekek, PS) |  |  |  | target mRNA inhibition (IRF5; KARPAS-229, 4 µM): 18% |
| TGAGTCATGGGCTGAG (sugars kkkdddddddddkeke, PS) |  |  |  | target mRNA inhibition (IRF5; KARPAS-229, 4 µM): 17% |
| CCTTCTGCAGGGAGTC (sugars kkddddddddddkeke, PS) |  |  |  | target mRNA inhibition (IRF5; KARPAS-229, 4 µM): 0% |
| GTGTATTTCCCTGTCT (sugars kkdddddddddkdkdk, PS) |  |  |  | target mRNA inhibition (IRF5; KARPAS-229, 4 µM): 0% |
| AGGTTCTTGGACTCTC (sugars kddddddddddkekek, PS) |  |  |  | target mRNA inhibition (IRF5; KARPAS-229, 4 µM): 34% |
| GAGTCATGGGCTGAGG (sugars kddddddddddkekek, PS) |  |  |  | target mRNA inhibition (IRF5; KARPAS-229, 4 µM): 0% |
| GTGACTGTATTACCTA (sugars k3 d10 k3, PS) |  |  |  | target mRNA inhibition (IRF5; KARPAS-229, 0.44444 µM): 9%; target mRNA inhibition (IRF5; KARPAS-229, 1.33333 µM): 39%; target mRNA inhibition (IRF5; KARPAS-229, 4 µM): 62% and 70%; target mRNA inhibition (IRF5; KARPAS-229, 12 µM): 81% |
| TTGTCTAGTGTCATGG (sugars kkdddddddddkekek, PS) |  |  |  | target mRNA inhibition (IRF5; KARPAS-229, 4 µM): 24% |
| TCAGTTCACCTCCAGGACCT (sugars e5 d10 e5, PS) | 46% |  |  |  |
| GAGATGGTGATAAGGCAGCA (sugars e5 d10 e5, PS) |  | 46% and 50% | 80% |  |
| ACCACAGCGATAATCAC (sugars e3 d10 e4, PS) |  | 50% | 75% |  |
| CTTCTGGACCCATCGGCCCC (sugars e5 d10 e5, PS) | 30% |  |  |  |
| TATTCTAAAACTCAAATCCA (sugars e5 d10 e5, PS) |  | 21% | 75% |  |
| AGAGCTTCACCAGGGCCTCC (sugars e5 d10 e5, PS) | 46% |  |  |  |
| ACCCACTGGAGCACTGAGAT (sugars e2 d13 e5, PS) | 52% |  |  |  |
| GGCTCAGTTCACCTCCAGGA (sugars e5 d10 e5, PS) |  | 56% | 90% |  |
| CTGCCATTTAATGAGCTTCA (sugars e5 d10 e5, PS) |  |  | 94% and 95% and 89% |  |
| TGCTGAGCTCATGAGAAGCT (sugars e5 d10 e5, PS) |  | 75% and 57% | 92% and 83% |  |
| TTCTGGAACTTCTTCTGGAC (sugars e5 d10 e5, PS) | 37% |  |  |  |

| Sequence | target mRNA inhibition (DGAT2; HepG2, 0.12 µM) | target mRNA inhibition (DGAT2; HepG2, 2.5 µM) | target mRNA inhibition (DGAT2; HepG2, 10 µM) | also measured |
| --- | --- | --- | --- | --- |
| GACAAAGTCTATCAGGATGC (sugars e5 d10 e5, PS) |  | 88% and 67% | 92% and 91% |  |
| GCCAGGTAAGGCCGTATGCC (sugars e5 d10 e5, PS) | 68% |  |  |  |
| TGCACCATAATCTGCACAGG (sugars e5 d10 e5, PS) |  | 75% and 71% | 80% and 91% |  |
| AGATGCCACTTCATCAAGGC (sugars e5 d10 e5, PS) | 24% |  |  |  |
| GATTATTCTAAAACTCAAAT (sugars e5 d10 e5, PS) | 0% |  |  |  |
| CCCAGTTTCGGACCCACTGT (sugars e2 d13 e5, PS) | 70% |  |  |  |
| GAAGTCAGGCCAAGTGCCAA (sugars e5 d10 e5, PS) | 26% |  |  |  |
| GTCTCATTCATCTGGGCCCT (sugars e5 d10 e5, PS) |  | 69% | 86% |  |
| GGCACCAGCCCCCAGGTGTC (sugars e5 d10 e5, PS) | 30% |  |  |  |
| GAGTATAGAAATTTCACTGA (sugars e5 d10 e5, PS) | 44% |  |  |  |
| GACTCAGTGTCCTCCTTAGC (sugars e5 d10 e5, PS) |  |  | 73% |  |
| TGCAGCCTGGACAAGTCCTG (sugars e5 d10 e5, PS) | 67% |  |  |  |
| TCAGGACCTCAGGGCTGGCC (sugars e5 d10 e5, PS) |  | 64% | 82% |  |
| GTTGTGTGTCTTCACCAGCT (sugars e3 d14 e3, PS) | 56% |  |  |  |
| ACAGGGCAGATACCTCCAGA (sugars e5 d10 e5, PS) | 58% |  |  |  |
| ATCCAGTGCCCCATCTCCCA (sugars e5 d10 e5, PS) | 16% |  |  |  |
| TGACCTTGGGATAGTCCCTC (sugars e5 d10 e5, PS) |  | 93% | 89% |  |
| GCACCTTGTATTAAATACTC (sugars e5 d10 e5, PS) |  | 75% | 91% |  |
| GGCATGCTTCCTCCCACTTC (sugars e5 d10 e5, PS) |  | 67% | 72% |  |
| GCCCAGCACCAAGGAATGGT (sugars e5 d10 e5, PS) |  | 0% | 59% |  |
| GCCAACAAGTGGGAAATGCA (sugars e5 d10 e5, PS) |  | 51% | 80% |  |
| TTCACCAGGGCCTCCATGTA (sugars e5 d10 e5, PS) | 20% |  |  |  |
| CAGGAAGGCACAGAAAAGTG (sugars e5 d10 e5, PS) | 28% |  |  |  |

| Sequence | target mRNA inhibition (DGAT2; HepG2, 0.12 µM) | target mRNA inhibition (DGAT2; HepG2, 2.5 µM) | target mRNA inhibition (DGAT2; HepG2, 10 µM) | also measured |
| --- | --- | --- | --- | --- |
| GCTAGGACACCTGGAGCTGC (sugars e5 d10 e5, PS) |  |  | 95% and 80% and 96% |  |
| CAGTGCCTACAGCAGAGGGA (sugars e5 d10 e5, PS) | 0% |  |  |  |
| CAGGTTGTGTGTCTTCACCA (sugars e5 d10 e5, PS) | 68% and 76% |  | 74% | target mRNA inhibition (DGAT2; HepG2, 20 µM): 87% |
| TCATTCTCTCCAAAGGAGTA (sugars e5 d10 e5, PS) | 18% |  |  |  |
| GAGCTCAGAGACTCAGCCGC (sugars e3 d14 e3, PS) | 89% |  | 72% and 73% |  |
| AGGAAGGACAGGACCCACTG (sugars e5 d10 e5, PS) | 38% |  |  |  |
| AATGGAGTGACAGGGCAGGA (sugars e5 d10 e5, PS) |  | 54% | 81% |  |
| CATTCTTTGAAAGCAAATAG (sugars e5 d10 e5, PS) | 15% |  |  |  |
| TGGACAAGTCCTGCCCATCT (sugars e2 d13 e5, PS) | 51% |  |  |  |
| CCCTCTTAGAAGTAATGCTT (sugars e5 d10 e5, PS) |  |  | 85% and 89% |  |
| TGGTCTTGTGCTTGTCGAAG (sugars e5 d10 e5, PS) | 41% |  |  |  |
| ACCTGGGTTTTTGTGTATTC (sugars e5 d10 e5, PS) |  | 86% and 87% | 86% and 90% |  |
| TAGAAATACAATTCCTGGAT (sugars e5 d10 e5, PS) | 71% |  |  |  |
| GATTTGTACTTGAATCCAGG (sugars e5 d10 e5, PS) | 34% |  |  |  |
| CAGGACCCACTGGAGCACTG (sugars e5 d10 e5, PS) | 80% |  |  | target mRNA inhibition (DGAT2; HepG2, 20 µM): 83% |
| GTTTCGGACCCACTGTGACC (sugars e2 d13 e5, PS) | 70% |  |  |  |
| GAGCACTTGATCTGGGACCC (sugars e5 d10 e5, PS) |  | 80% and 71% | 92% and 91% |  |
| AATGGGAATGGTATCGCACT (sugars e5 d10 e5, PS) |  | 58% | 89% |  |
| AGCCAGGTAAGGCCGTATGC (sugars e2 d13 e5, PS) | 67% |  |  |  |
| CAGAATGAGACAGGCAGCCC (sugars e5 d10 e5, PS) |  | 37% | 82% |  |
| TTGTACACTTCATTCTCTCC (sugars e5 d10 e5, PS) |  | 37% | 84% |  |
| GAGTAGGCGGCTATGAGGGT (sugars e5 d10 e5, PS) | 11% |  |  |  |
| AGAAGGCACCCAGGCCCATG (sugars e5 d10 e5, PS) | 38% |  |  |  |

| Sequence | target mRNA inhibition (DGAT2; HepG2, 0.12 µM) | target mRNA inhibition (DGAT2; HepG2, 2.5 µM) | target mRNA inhibition (DGAT2; HepG2, 10 µM) | also measured |
| --- | --- | --- | --- | --- |
| GGCATGGAGCTCAGAGACTC (sugars e2 d13 e5, PS) | 77% |  |  |  |
| GGAGTTTGTGTTTCCCATTT (sugars e5 d10 e5, PS) |  | 81% and 72% | 91% and 84% |  |
| ACAACTCTCTTGTTGGGAGG (sugars e5 d10 e5, PS) |  | 64% | 84% |  |
| AATAGTCTATGGTGTCCCGG (sugars e5 d10 e5, PS) | 63% |  |  |  |
| TTCTTGCCAGGCATGGAGCT (sugars e5 d10 e5, PS) | 54% |  |  |  |
| GCCTGGACAAGTCCTGCCCA (sugars e2 d13 e5, PS) | 78% | 44% and 45% | 87% | target mRNA inhibition (DGAT2; HepG2, 20 µM): 55% |
| TCCTTTGAAATCCAATGCAC (sugars e5 d10 e5, PS) |  | 75% and 63% | 87% and 77% |  |
| ATGGAGCTCAGAGACTCAGC (sugars e2 d13 e5, PS) | 73% |  |  |  |
| GCCAGTTTCACAAAGCCCTT (sugars e5 d10 e5, PS) | 34% |  |  |  |
| CTCCTGTTTGATGGGTAAAA (sugars e5 d10 e5, PS) |  | 90% | 80% |  |
| CAGATCTTCATTACATGATT (sugars e5 d10 e5, PS) |  | 71% | 89% |  |
| GCCTTGGGAAGTCTCTCATA (sugars e5 d10 e5, PS) |  | 0% | 58% |  |
| GCCAATGCCTAGGTCACAGT (sugars e5 d10 e5, PS) |  | 87% and 93% | 84% and 90% |  |
| TCACTGATGACATATCCCCA (sugars e5 d10 e5, PS) | 52% |  |  |  |
| TGGAGCTCAGAGACTCAGCC (sugars e5 d10 e5, PS) | 77% | 19% | 70% | target mRNA inhibition (DGAT2; HepG2, 20 µM): 46% |
| TGTCCTAGTGCCCCAGGGAG (sugars e5 d10 e5, PS) |  | 48% | 79% |  |
| TTCCCCAGAGCAGCTCTGAG (sugars e5 d10 e5, PS) | 27% |  |  |  |
| AGGCATGGAGCTCAGAGACT (sugars e3 d14 e3, PS) | 66% |  |  |  |
| AAGGAGTTTGTGTTTCCCAT (sugars e5 d10 e5, PS) |  | 71% and 65% | 91% and 85% |  |
| GCAGGACCCCGGAGTAGGCG (sugars e3 d14 e3, PS) | 70% |  |  |  |
| GACACACAATATCCATGGAC (sugars e5 d10 e5, PS) |  | 72% | 93% |  |
